These results are taken from patent US7470680B2, “Constrained compounds as CGRP-receptor antagonists” (Bristol-Myers Squibb Company, priority 2006, dated 2008).

This assay deals with CGRP receptor (Homo sapiens, UniProt O60894+Q16602). In words: CGRP radioligand binding assay ([125I]-CGRP displacement, SK-N-MC homogenate). On the set-up: endogenous in cells; host or cells: SK-N-MC cells (homogenate/membrane pellet). To be noted: displacement of [125I]-CGRP, SK-N-MC membranes. The method, then:
CGRP Binding Assay. Tissue Culture. SK-N-MC cells were grown at 37° C. in 5% CO2 as a monolayer in medium consisting of MEM with Earle's salts and L-glutamine (Gibco) supplemented with 10% fetal bovine serum (Gibco). Cell Pellets. The cells were rinsed twice with phosphate-buffered saline (155 mM NaCl, 3.3 mM Na2HPO4, 1.1 mM KH2PO4, pH 7.4), and incubated for 5-10 min. at 4° C. in hypotonic lysis buffer consisting of 10 mM Tris (pH 7.4) and 5 mM EDTA. The cells were transferred from plates to polypropylene tubes (16×100 mm) and homogenized using a polytron. Homogenates were centrifuged at 32,000×g for 30 min. The pellets were resuspended in cold hypotonic lysis buffer with 0.1% mammalian protease inhibitor cocktail (Sigma) and assayed for protein concentration. The SK-N-MC homogenate was then aliquoted and stored at −80° C. until needed.
Radioligand Binding Assay. The compounds of invention were solubilized and carried through serial dilutions using 100% DMSO. Aliquots from the compound serial dilutions were further diluted 25 fold into assay buffer (50 mM Tris-Cl pH 7.5, 5 mM MgCl2, 0.005% Triton X-100) and transferred (volume 50 μl) into 96 well assay plates. [^125I]-CGRP (Amersham Biosciences) was diluted to 60 pM in assay buffer and a volume of […] was added to each well. SK-N-MC pellets were thawed, diluted in assay buffer with fresh 0.1% mammalian protease inhibitor cocktail (Sigma), and homogenized again. SK-N-MC homogenate (5 μg/well) was added in a volume of 100 μl. The assay plates were then incubated at room temperature for 2 h. Assays were stopped by addition of excess cold wash buffer (20 mM Tris-Cl pH 7.5, 0.1% BSA) immediately followed by filtration over glass fiber filters (Whatman GF/B) previously soaked in 0.5% PEI. Non-specific binding was defined with 1 μM beta-CGRP. Protein bound radioactivity was determined using a gamma or scintillation counter. The IC50 was defined as the concentration of a compound of invention required to displace 50% of radioligand binding.

Sequence of CGRP receptor (Q16602 23-461): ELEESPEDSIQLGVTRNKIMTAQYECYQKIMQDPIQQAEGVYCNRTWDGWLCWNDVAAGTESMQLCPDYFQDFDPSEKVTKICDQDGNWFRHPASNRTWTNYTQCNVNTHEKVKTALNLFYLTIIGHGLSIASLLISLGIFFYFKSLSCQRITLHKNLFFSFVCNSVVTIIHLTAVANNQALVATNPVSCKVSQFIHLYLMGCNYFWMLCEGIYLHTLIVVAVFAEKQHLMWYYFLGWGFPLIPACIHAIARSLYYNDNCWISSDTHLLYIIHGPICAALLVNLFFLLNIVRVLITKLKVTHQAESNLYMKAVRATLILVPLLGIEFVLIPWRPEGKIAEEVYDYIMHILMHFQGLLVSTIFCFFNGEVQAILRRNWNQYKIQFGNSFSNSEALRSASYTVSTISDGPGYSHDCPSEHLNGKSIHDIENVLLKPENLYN
Sequence of CGRP receptor (O60894 27-148): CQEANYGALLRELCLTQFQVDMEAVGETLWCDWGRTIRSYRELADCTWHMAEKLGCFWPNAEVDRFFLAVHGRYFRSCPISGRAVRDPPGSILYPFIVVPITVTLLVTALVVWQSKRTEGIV

In the case of `O=C(C[C@@H]1Cc2cc(Cl)c3[nH]ncc3c2CN(CC(F)(F)F)C1=O)N1CCC(N2CCc3ccccc3NC2=O)CC1`, under “Table 1”, the IC50 was 0.01 to 10 nM.

On to `O=C(C[C@@H]1Cc2cc(Cl)c3[nH]ncc3c2CN(CC(F)(F)F)C1=O)N1CCC(n2ccn(-c3ccccc3)c2=O)CC1`, for which the IC50 (Table 1) lay in the range of 100 to 1000 nM. On the same count and under the same terms, in the case of `O=C(C[C@@H]1Cc2cc(Cl)c3[nH]ncc3c2CN(CC(F)(F)F)C1=O)N1CCC(n2cc[nH]c2=O)CC1` it was 0.01 to 10 nM. Same read-out and setting: then `O=C(C[C@@H]1Cc2cc(Cl)c3[nH]ncc3c2CN(CC(F)(F)F)C1=O)N1CCC(n2c(=O)[nH]c3ccccc32)CC1`, with 0.01 to 10 nM. Same read-out and setting: then `N#Cc1cn(C2CCN(C(=O)C[C@@H]3Cc4cc(Cl)c5[nH]ncc5c4CN(CC(F)(F)F)C3=O)CC2)c(=O)[nH]1`, with 10 to 100 nM; and `O=C(C[C@@H]1Cc2cc(Cl)c3[nH]ncc3c2CN(CC(F)(F)F)C1=O)N1CCC(n2ccn(-c3ccccc3F)c2=O)CC1`, with more than 1000 nM. With `O=C(C[C@@H]1Cc2cc(Cl)c3[nH]ncc3c2CN(CC(F)(F)F)C1=O)N1CCC(N2CCN(c3ccccc3F)C2=O)CC1`, for the setting “Table 1”, the IC50 is more than 1000 nM. Still for that read-out and setting: in the case of `O=C(C[C@@H]1Cc2cc(Cl)c3[nH]ncc3c2CN(CC(F)(F)F)C1=O)N1CCC(n2c(=O)[nH]c3ncccc32)CC1` it was 0.01 to 10 nM; in that of `O=C(C[C@@H]1Cc2cc(Cl)c3[nH]ncc3c2CN(CC(F)(F)F)C1=O)N1CCC(n2c(=O)[nH]c3c2ccc[n+]3[O-])CC1`, 10 to 100 nM. Where the note is “Table 1”, `O=C(C[C@@H]1Cc2cc(Br)c3[nH]nc(Br)c3c2CN(CC(F)(F)F)C1=O)N1CCC(n2c(=O)[nH]c3ncccc32)CC1` registered an IC50 of 0.01 to 10 nM. The same measure, in the same setting: in the case of `O=C(C[C@@H]1Cc2cc(Br)c3[nH]nc(Br)c3c2CN(CC(F)(F)F)C1=O)N1CCC(N2CCc3ccccc3NC2=O)CC1` it was 0.01 to 10 nM; in that of `O=C(C[C@@H]1Cc2cc(Cl)c3[nH]ncc3c2CN(CC(F)(F)F)C1=O)N1CCC(N2CCc3cccc(F)c3NC2=O)CC1`, 10 to 100 nM; in that of `O=C(C[C@@H]1Cc2cc(Cl)c3[nH]ncc3c2CN(CC(F)(F)F)C1=O)N1CCC(N2CCc3cccnc3NC2=O)CC1`, 0.01 to 10 nM. On the same count and under the same terms, then `O=C(C[C@@H]1Cc2cc(Cl)c3[nH]ncc3c2CN(CC(F)(F)F)C1=O)N1CCC(N2CCc3ncccc3NC2=O)CC1`, with 0.01 to 10 nM; and `O=C(C[C@@H]1Cc2cc(Cl)c3[nH]ncc3c2CN(CC(F)(F)F)C1=O)N1CCC(n2c(=O)[nH]c3c(F)cccc32)CC1`, with 0.01 to 10 nM; and `O=C(C[C@@H]1Cc2cc(Br)c3[nH]nc(Cl)c3c2CN(CC(F)(F)F)C1=O)N1CCC(N2CCc3ccccc3NC2=O)CC1`, with 0.01 to 10 nM. The same measure, in the same setting: then `O=C(C[C@@H]1Cc2cc(Br)c3[nH]nc(Cl)c3c2CN(CC(F)(F)F)C1=O)N1CCC(n2c(=O)[nH]c3ncccc32)CC1`, with 0.01 to 10 nM; and `O=C(C[C@@H]1Cc2cc(Cl)c3[nH]nc(Cl)c3c2CN(CC(F)(F)F)C1=O)N1CCC(N2CCc3ccccc3NC2=O)CC1`, with 0.01 to 10 nM; and `O=C(C[C@@H]1Cc2cc(Cl)c3[nH]nc(Cl)c3c2CN(CC(F)(F)F)C1=O)N1CCC(n2c(=O)[nH]c3ncccc32)CC1`, with 0.01 to 10 nM.

For the setting “Table 1”, `O=C(C[C@@H]1Cc2cc(Cl)c3[nH]nc(Cl)c3c2CN(CCN2CCCCC2)C1=O)N1CCC(N2CCc3ccccc3NC2=O)CC1` had an IC50 of 0.01 to 10 nM. The same measure, in the same setting: in the case of `O=C(C[C@@H]1Cc2cc(Cl)c3[nH]nc(Cl)c3c2CN(CCN2CCCCC2)C1=O)N1CCC(n2c(=O)[nH]c3ncccc32)CC1` it was 0.01 to 10 nM. Still for that read-out and setting: then `Cn1ccc2[nH]c(=O)c(C3CCN(C(=O)C[C@@H]4Cc5cc(Cl)c6[nH]ccc6c5CN(CC(C)(C)C)C4=O)CC3)cc21`, with 0.01 to 10 nM; and `CC(C)(C)CN1Cc2c(cc(Cl)c3[nH]ccc23)C[C@@H](CC(=O)N2CCC(c3cc4sccc4[nH]c3=O)CC2)C1=O`, with 0.01 to 10 nM.

`CC(C)(C)CN1Cc2c(cc(Cl)c3[nH]ncc23)C[C@@H](CC(=O)N2CCC(c3cc4scc(Br)c4[nH]c3=O)CC2)C1=O` came in with an IC50 (Table 1) of 0.01 to 10 nM. Still for that read-out and setting: then `CC(C)(C)CN1Cc2c(cc(Cl)c3[nH]ncc23)C[C@@H](CC(=O)N2CCC(c3cc4sc(Cl)cc4[nH]c3=O)CC2)C1=O`, with 0.01 to 10 nM.

Consider `CC(C)(C)CN1Cc2c(cc(Cl)c3[nH]ccc23)C[C@@H](CC(=O)N2CCC(c3cc4[nH]ccc4[nH]c3=O)CC2)C1=O`, for which the IC50 (Table 1) lay within 0.01 to 10 nM. The compound `CC(C)(C)CN1Cc2c(cc(Cl)c3[nH]ccc23)C[C@@H](CC(=O)N2CCC(O)(c3cc(Cl)nc4[nH]ccc34)CC2)C1=O` gave a concentration for half-maximal inhibition (IC50) (Table 1) of 100 to 1000 nM. Still for that read-out and setting: then `O=C(O[C@@H]1Cc2cc(Cl)c3[nH]ncc3c2CN(CC(F)(F)F)C1=O)N1CCC(N2CCc3ccccc3NC2=O)CC1`, with 0.01 to 10 nM; and `O=C(O[C@@H]1Cc2cc(Cl)c3[nH]ncc3c2CN(CC(F)(F)F)C1=O)N1CCC(n2c(=O)[nH]c3ncccc32)CC1`, with 0.01 to 10 nM. The same measure, in the same setting: in the case of `O=C1Nc2ccccc2C2(CCN(C(=O)C[C@@H]3Cc4cc(Cl)c5[nH]ncc5c4CN(CC(F)(F)F)C3=O)CC2)N1` it was 0.01 to 10 nM; in that of `O=C1NC(=O)C(C2CCN(C(=O)C[C@@H]3Cc4cc(Cl)c5[nH]ncc5c4CN(CC(F)(F)F)C3=O)CC2)N1` (stereo partly drawn), 100 to 1000 nM; in that of `O=C1NC(=O)C2(CCN(C(=O)C[C@@H]3Cc4cc(Cl)c5[nH]ncc5c4CN(CC(F)(F)F)C3=O)CC2)N1`, 10 to 100 nM. On the same count and under the same terms, in the case of `N#Cc1cc(Cl)ccc1C1=CCN(C(=O)C[C@@H]2Cc3cc(Cl)c4[nH]ncc4c3CN(CC(F)(F)F)C2=O)CC1` it was 10 to 100 nM; in that of `Cn1ncc2c3c(cc(Cl)c21)C[C@@H](CC(=O)N1CCC(n2c(=O)[nH]c4ncccc42)CC1)C(=O)N(CC(F)(F)F)C3`, 0.01 to 10 nM; in that of `CCn1ncc2c3c(cc(Cl)c21)C[C@@H](CC(=O)N1CCC(n2c(=O)[nH]c4ncccc42)CC1)C(=O)N(CC(F)(F)F)C3`, 10 to 100 nM. In turn, `O=C(C[C@@H]1Cc2cc(Cl)c3c(cnn3Cc3ccccc3)c2CN(CC(F)(F)F)C1=O)N1CCC(n2c(=O)[nH]c3ncccc32)CC1` yielded an IC50 (Table 1) of 10 to 100 nM. Still for that read-out and setting: in the case of `Cn1ncc2c3c(cc(Cl)c21)C[C@@H](CC(=O)N1CCC(N2CCc4ccccc4NC2=O)CC1)C(=O)N(CC(F)(F)F)C3` it was 0.01 to 10 nM. Still for that read-out and setting: in the case of `CCCn1ncc2c3c(cc(Cl)c21)C[C@@H](CC(=O)N1CCC(N2CCc4ccccc4NC2=O)CC1)C(=O)N(CC(F)(F)F)C3` it was 10 to 100 nM; in that of `COCn1ncc2c3c(cc(Cl)c21)C[C@@H](CC(=O)N1CCC(N2CCc4ccccc4NC2=O)CC1)C(=O)N(CC(F)(F)F)C3`, 10 to 100 nM; in that of `COCCn1ncc2c3c(cc(Cl)c21)C[C@@H](CC(=O)N1CCC(N2CCc4ccccc4NC2=O)CC1)C(=O)N(CC(F)(F)F)C3`, 0.01 to 10 nM. For `O=C(C[C@@H]1Cc2cc(Cl)c3[nH]ncc3c2CN(Cc2ccncc2)C1=O)N1CCC(c2cc3cccc(F)c3[nH]c2=O)CC1`, the IC50 (Table 2) fell in the range of 0.01 to 10 nM.

For the setting “Table 2”, `O=C1Nc2ccccc2CC1N1CCN(C(=O)N[C@@H]2Cc3ccc4[nH]ncc4c3CN(Cc3ccccc3)C2=O)CC1` (stereo partly drawn) returned an IC50 of 100 to 1000 nM. Same read-out and setting: then `CC(C)(C)CN1Cc2c(ccc3[nH]ncc23)C[C@@H](NC(=O)N2CCC3(CC2)N=C(c2ccccc2)NC3=O)C1=O`, with 100 to 1000 nM; and `CC(C)(C)CN1Cc2c(ccc3[nH]ncc23)C[C@@H](NC(=O)N2CCC3(CC2)CC(=O)Nc2ccccc23)C1=O`, with more than 1000 nM. Still for that read-out and setting: then `CC(=O)N1CCC(N2Cc3c(ccc4[nH]ncc34)C[C@@H](NC(=O)N3CCC(N4Cc5ccccc5NC4=O)CC3)C2=O)CC1`, with 10 to 100 nM. The compound `COc1cc2ccccc2cc1C1CCN(C(=O)N[C@@H]2Cc3cc(Cl)c4[nH]ncc4c3CN(CC(C)(C)C)C2=O)CC1` had an IC50 (Table 2) of more than 1000 nM. The same measure, in the same setting: then `O=C(C[C@@H]1Cc2cc(Cl)c3[nH]ncc3c2CN(CC(F)(F)F)C1=O)N1CCC(N2Cc3ccccc3NC2=O)CC1`, with 0.01 to 10 nM; and `CC(C)(C)CN1Cc2c(cc(Cl)c3[nH]ncc23)C[C@@H](CC(=O)N2CCC(N3Cc4cccnc4NC3=O)CC2)C1=O`, with 0.01 to 10 nM. On the same count and under the same terms, in the case of `CC(C)(C)CN1Cc2c(cc(Cl)c3[nH]ncc23)C[C@@H](CC(=O)N2CCC(c3cc4cccnc4[nH]c3=O)CC2)C1=O` it was 0.01 to 10 nM; in that of `O=C(C[C@@H]1Cc2cc(Cl)c3[nH]ncc3c2CN(Cc2ccncc2)C1=O)N1CCC(c2cc3ccccc3c[n+]2[O-])CC1`, 0.01 to 10 nM. Same read-out and setting: in the case of `CC(C)(C)CN1Cc2c(cc(Cl)c3[nH]ncc23)C[C@@H](CC(=O)Nc2ccc3c(c2)CCC2(C3)NC(=O)NC2=O)C1=O` (stereo partly drawn) it was 0.01 to 10 nM.

For the compound `CC(C)(C)CN1Cc2c(ccc3[nH]ncc23)CC(N/C(=N/C#N)N2CCC(N3Cc4ccccc4NC3=O)CC2)C1=O` (stereo not drawn), the IC50 (Table 2) was in the range of 0.01 to 10 nM.

`O=C(C[C@@H]1Cc2cc(Cl)c3[nH]ncc3c2CN(CC(F)(F)F)C1=O)N1CCC(c2cc3cccnc3[nH]c2=O)CC1` displayed a concentration for half-maximal inhibition (IC50) (Table 2) of 0.01 to 10 nM. `O=C(C[C@@H]1Cc2cc(Cl)c3[nH]ncc3c2CN(CC(F)(F)F)C1=O)N1CCC(c2cc3ccccc3[nH]c2=O)CC1` showed an IC50 (Table 2) of 0.01 to 10 nM.

A word on the IC50: it is the concentration that gives 50% inhibition. The low end stands for higher potency, the high end for lower potency.
